“And” between values parts separate entries of the source, which are not always exact repeats. Identical values can stand only once.
Legend:
[1] = Plasma concentration of oxonic acid and adenine in hyperuricemic rats; assay type: in vivo, rat; settings: hyperuricemic rats given oral oxonic acid […] and adenine 0.1 g/kg; detection limit 100 μM for oxonic acid
[2] = biological target: T1, human MATE1 (Homo sapiens, UniProt Q96FL8); assay: Uptake of [3H]MPP+ by MATE1-expressing HEK293 cells; assay type: cell-based; settings: for MATE1-mediated uptake of [3H]MPP+, percentage of control: HEK293/hMATE1 minus mock, 0.25 nM [3H]MPP+, 0.5 min, 37°C; for MATE1-mediated uptake of MPP+, % of Control: after subtraction of uptake by mock cells; for MATE1-mediated uptake of MPP+, % of Control / C/M ratio of MPP+ uptake, MATE1-expressing cells: replicates and mean
T1 construct: expressed in transfected cells; host or cells: HEK293 (HEK293/hMATE1; gift from Dr. Inoue, Tokyo University of Pharmacy and Life Science)
T1 sequence (Q96FL8 1-570): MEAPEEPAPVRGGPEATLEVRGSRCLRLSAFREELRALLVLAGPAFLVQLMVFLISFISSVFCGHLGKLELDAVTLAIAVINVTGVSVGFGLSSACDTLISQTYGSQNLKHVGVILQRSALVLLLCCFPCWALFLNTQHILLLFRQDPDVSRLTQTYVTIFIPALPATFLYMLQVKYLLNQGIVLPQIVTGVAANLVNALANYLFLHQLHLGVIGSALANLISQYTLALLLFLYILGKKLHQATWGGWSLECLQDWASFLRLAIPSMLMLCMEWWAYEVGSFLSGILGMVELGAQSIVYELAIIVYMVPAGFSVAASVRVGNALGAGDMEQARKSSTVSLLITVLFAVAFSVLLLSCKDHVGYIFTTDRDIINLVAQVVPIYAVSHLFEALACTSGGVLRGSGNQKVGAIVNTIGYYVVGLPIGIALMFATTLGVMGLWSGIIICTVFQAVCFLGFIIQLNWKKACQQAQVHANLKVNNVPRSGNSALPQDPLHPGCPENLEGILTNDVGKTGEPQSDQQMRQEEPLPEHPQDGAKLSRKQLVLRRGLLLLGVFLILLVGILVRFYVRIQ
Protocol: HEK293 cells transfected with human MATE1 (HEK293/hMATE1) and vector alone (mock) were gifts from Dr. Inoue (Tokyo University of Pharmacy and Life Science). […] HEK293/mock and HEK293/hMATE1 cells were plated at a density of 3.0 × 10^5 cells/well on 24-well plates and cultured for two days before an uptake assay. […] Radioactivity was measured with a liquid scintillation counter (Hitachi Aloka Medical, Tokyo, Japan). Part of the lysate was used for the determination of total protein amount with Bio-Rad protein assay dye reagent. Uptake of MPP^+ was expressed as a cell-to-medium ratio (μL/mg protein) obtained by dividing the uptake amount by the concentration of substrate in the TM. Percentages of control were calculated as the ratio of MATE1-mediated uptake of MPP^+ that obtained after subtraction of the uptake of MPP^+ by mock cells in compound treated groups to that in control group.

[3] = system: Mock cells; assay: Uptake of MPP+ by mock cells (background for MATE1-expressing cells); assay type: cell-based; settings: replicates and mean
Protocol: Dunnett's test was used for uptake study to compare the control group to groups treated with drugs.
Percentages of control were calculated as the ratio of MATE1-mediated uptake of MPP^+ that obtained after subtraction of the uptake of MPP^+ by mock cells in compound treated groups to that in control group.

## O=C(O)c1nc(=O)[nH]c(=O)[nH]1 [oxonic acid]
[1]
  Plasma concentration: lower than 100 μM
[2]; 50 μM test compound
  MATE1-mediated uptake of [3H]MPP+, percentage of control: 101.5%
[2]; 500 μM test compound
  MATE1-mediated uptake of [3H]MPP+, percentage of control: 98.2%
[2]; 50 and 500 μM of each
  Inhibitory effect on MATE1-mediated MPP+ uptake: No inhibitory effects
[2]; Oxonic acid 50 µM
  MATE1-mediated uptake of MPP+, % of Control: 93.3 % of Control and 90.1 % of Control and 121.0 % of Control
  C/M ratio of MPP+ uptake, MATE1-expressing cells: 177 µL/mg protein and 232 µL/mg protein and 183 µL/mg protein
[2]; Oxonic acid 50 µM, mean
  MATE1-mediated uptake of MPP+, % of Control: 101.5 % of Control
  C/M ratio of MPP+ uptake, MATE1-expressing cells: 197 µL/mg protein
[2]; Oxonic acid 500 µM
  MATE1-mediated uptake of MPP+, % of Control: 118.1 % of Control and 83.7 % of Control and 92.8 % of Control
  C/M ratio of MPP+ uptake, MATE1-expressing cells: 173 µL/mg protein and 190 µL/mg protein and 235 µL/mg protein
[2]; Oxonic acid 500 µM, mean
  MATE1-mediated uptake of MPP+, % of Control: 98.2 % of Control
  C/M ratio of MPP+ uptake, MATE1-expressing cells: 199 µL/mg protein
[3]; Oxonic acid 50 µM
  C/M ratio of MPP+ uptake, Mock cells: 18.7 µL/mg protein and 13.1 µL/mg protein and 12.3 µL/mg protein
[3]; Oxonic acid 50 µM, mean
  C/M ratio of MPP+ uptake, Mock cells: 14.7 µL/mg protein
[3]; Oxonic acid 500 µM
  C/M ratio of MPP+ uptake, Mock cells: 19.2 µL/mg protein and 28.0 µL/mg protein and 20.9 µL/mg protein
[3]; Oxonic acid 500 µM, mean
  C/M ratio of MPP+ uptake, Mock cells: 22.7 µL/mg protein

From paper PMC6450621, “Changes of drug pharmacokinetics mediated by downregulation of kidney organic cation transporters Mate1 and Oct2 in a rat model of hyperuricemia” (PLoS ONE, 2019)
